In brackets after ≈: the same amount, converted by molar mass.

For series [1], the system named is Mycobacterium tuberculosis. In words: Antitubercular activity against Mycobacterium tuberculosis H37Rv assessed as minimum inhibitory concentration required to inhibit 90% of bacterial growth incubated for 7 days under aerobic condition by microplate Alamar blue assay. As to conditions: 168 h, time 7 day. The class given is functional.
The test system of series [2] is Mycobacterium tuberculosis. As to the kind of experiment: Antitubercular activity against Mycobacterium tuberculosis H37Rv assessed as minimum inhibitory concentration required to inhibit 90% of bacterial growth incubated for 10 days under anerobic condition followed by incubation under ambient gaseous condition for 7 days by low oxygen recovery assay. The class given is functional. The conditions noted are these: 408 h, time 17 day.

Series [3] has as its system Leishmania donovani. In words: Antileishmanial activity against Leishmania donovani MHOM/ET/67/HU3 amastigotes infected in BALB/c mouse model of visceral leishmaniasis assessed as reduction in parasite burden in liver at 25 mg/kg, po administered once daily for 5 consecutive days starting after 7 days post-infection by microscopic analysis relative to control. The class given is functional. On the set-up: scale not given: the % may be the effect or the level left. As to conditions: time 5 day.

Series [4] relates to Leishmania donovani. In words: Antileishmanial activity against Leishmania donovani MHOM/ET/67/HU3 amastigotes infected in BALB/c mouse model of visceral leishmaniasis assessed as reduction in parasite burden in liver at 12.5 mg/kg, po administered once daily for 5 consecutive days starting after 7 days post-infection by microscopic analysis relative to control. The class given is functional. On the set-up: scale not given: the % may be the effect or the level left. The conditions noted are these: time 5 day.

Another series deals with Leishmania infantum. As to the kind of experiment: Antileishmanial activity against Leishmania infantum MHOM/MA(BE)/67 amastigotes infected in mouse peritoneal macrophages incubated for 5 days by Giemsa staining based assay. The class given is functional, organism-based. As to conditions: MHOM/MA(BE)/67, Peritoneal macrophage, 120 h.
Series [5] is described as follows: Aqueous solubility of the compound at pH 7 sonicated for 15 mins by HPLC analysis. The conditions noted are these: aqueous medium.
Another series has as its system MRC5. In words: Cytotoxicity against human MRC5 cells assessed as reduction in cell viability measured after 72 hrs by resazurin assay. It is filed as ADME, cell-based. The conditions noted are these: MRC5, 72 h.
The nature of series [6]: Solubility of the compound in 0.1 M HCl at pH 1 sonicated for 15 mins by HPLC analysis. The class given is physicochemical.
Series [7] has as its system Leishmania donovani. As to the kind of experiment: Antileishmanial activity against Leishmania donovani MHOM/ET/67/HU3 amastigotes infected in BALB/c mouse model of visceral leishmaniasis assessed as reduction in parasite burden in liver at 6.25 mg/kg, po administered once daily for 5 consecutive days starting after 7 days post-infection by microscopic analysis relative to control. The class given is functional. On the set-up: scale not given: the % may be the effect or the level left. The conditions noted are these: time 5 day.

For series [8], the system named is Leishmania donovani. As to the kind of experiment: Antileishmanial activity against Leishmania donovani MHOM/ET/67/HU3 amastigotes infected in BALB/c mouse model of visceral leishmaniasis assessed as reduction in parasite burden in liver at 50 mg/kg, po administered once daily for 5 consecutive days starting after 7 days post-infection by microscopic analysis relative to control. The class given is functional. On the set-up: scale not given: the % may be the effect or the level left. As to conditions: time 5 day.

With `C[C@]1(COC(=O)Nc2ccc(OC(F)(F)F)cc2)CCn2cc([N+](=O)[O-])nc2O1`, the results for the MIC90 in series [1] and in series [2] were 0.085 µM (≈ 0.0354 µg/mL) and 1 µM (≈ 0.416 µg/mL), respectively. The results for the Activity in the series on Leishmania donovani [3] and with Leishmania donovani [4] were 89% and 40%, respectively. The 50% inhibitory concentration (IC50) in the series on Leishmania infantum was 0.14 µM; in the series on MRC5, at least 40 µM. The molecule also had a solubility at 0.25 h in series [5] of 6.3 µg/mL (≈ 15.1 µM).
On to `CC1(CNc2ccc(OC(F)(F)F)cc2)CCn2cc([N+](=O)[O-])nc2O1` (stereo not drawn), for which the values for the solubility at 0.25 h in series [6] and in [5] were 10 µg/mL (≈ 26.9 µM) and 3 µg/mL (≈ 8.06 µM), respectively. Moreover, the Activity in the series on Leishmania donovani [7] was 29%; in the series with Leishmania donovani [8], above 99%. The figures for the IC50 in the series on Leishmania infantum and with MRC5 were 0.18 µM and at least 40 µM, respectively.

Source of the values: ChEMBL document CHEMBL4673405, “Novel Linker Variants of Antileishmanial/Antitubercular 7-Substituted 2-Nitroimidazooxazines Offer Enhanced Solubility” (ACS Med Chem Lett, 2021).
